Values of other authors, collected in patent US5321022A, “Compositions for percutaneous administration” (Kanebo, Ltd., priority 1989, dated 1994).

Settings: cf: U.S. Pat. No. 4430343

CCOCCn1c(N2CCCN(C)CC2)nc2ccccc21 [emedastine, 1-(2-Ethoxyethyl)-2-(hexahydro-4-methyl-1H-1,4-diazepin-1-yl)-1H-benzimidazole]
antihistaminic activity (in words): strong antihistaminic activity
